# Test results reported in publication PMC10771525 (Communications Biology, 2024).
# Tests used:
# [1] = system: HRH1; assay: GPCR panel (control), Arrestin, CHO-K1; assay type: cell-based, human; settings: reference agonist
# [2] = system: CXCR3; assay: GPCR panel (control), Arrestin, CHO-K1; assay type: cell-based, human; settings: reference agonist
# [3] = system: CXCR1; assay: GPCR panel (control), Arrestin, U2OS; assay type: cell-based, human; settings: reference agonist
# [4] = system: CXCR2; assay: GPCR panel (control), Arrestin, HEK-293; assay type: cell-based, human; settings: reference agonist, CXCR2, HEK-293, Arrestin
# [5] = system: CMKLR1; assay: GPCR panel (control), Arrestin, CHO-K1; assay type: cell-based, human; settings: reference agonist
# [6] = system: GPR1; assay: GPCR panel (control), Arrestin, CHO-K1; assay type: cell-based, human; settings: reference agonist
# [7] = system: EDG1; assay: GPCR panel (control), Arrestin, CHO-K1; assay type: cell-based, human; settings: reference agonist
# [8] = system: EDG3; assay: GPCR panel (control), Arrestin, CHO-K1; assay type: cell-based, human; settings: reference agonist
# [9] = system: EDG5; assay: GPCR panel (control), Arrestin, CHO-K1; assay type: cell-based, human; settings: reference agonist
# [10] = system: EDG6; assay: GPCR panel (control), Arrestin, CHO-K1; assay type: cell-based, human; settings: reference agonist
# [11] = system: EDG8; assay: GPCR panel (control), Arrestin, CHO-K1; assay type: cell-based, human; settings: reference agonist
# [12] = biological target: CRTH2 (Homo sapiens, UniProt Q9Y5Y4); assay: GPCR panel (control), Arrestin, U2OS; assay type: cell-based; settings: reference agonist
# [13] = system: CCR1; assay: GPCR panel (control), Arrestin, CHO; assay type: cell-based, human; settings: reference agonist
# [14] = system: ADRA2A; settings: reference agonist, CHO-K1, Arrestin
# [15] = system: ADRA2C; settings: reference agonist, CHO-K1, Arrestin
# [16] = system: TBXA2R; assay: GPCR panel (control), Arrestin, U2OS; assay type: cell-based, human; settings: reference agonist
# [17] = system: ADORA3; assay: GPCR panel (control), Arrestin, CHO-K1; assay type: cell-based, human; settings: reference agonist
# [18] = system: CCR6; assay: GPCR panel (control), Arrestin, CHO-K1; assay type: cell-based, human; settings: reference agonist
# [19] = system: EDG2; assay: GPCR panel (control), Arrestin, CHO-K1; assay type: cell-based, human; settings: reference agonist
# [20] = system: EDG4; assay: GPCR panel (control), Arrestin, CHO-K1; assay type: cell-based, human; settings: reference agonist
# [21] = system: EDG7; assay: GPCR panel (control), Arrestin, CHO-K1; assay type: cell-based, human; settings: reference agonist
# [22] = system: GPR92; assay: GPCR panel (control), Arrestin, CHO-K1; assay type: cell-based, human; settings: reference agonist
# [23] = system: CCR2; assay: GPCR panel (control), Arrestin, CHO-K1; assay type: cell-based, human; settings: reference agonist
# [24] = system: CXCR5; assay: GPCR panel (control), Arrestin, CHO-K1; assay type: cell-based, human; settings: reference agonist
# [25] = system: GPR119; assay: GPCR panel (control), Arrestin, U2OS; assay type: cell-based, human; settings: reference agonist
# [26] = system: CCR5; assay: GPCR panel (control), Arrestin, CHO-K1; assay type: cell-based, human; settings: reference agonist
# [27] = system: HRH3; assay: GPCR panel (control), Arrestin, CHO-K1; assay type: cell-based, human; settings: reference agonist
# [28] = biological target: PTGIR (Homo sapiens, UniProt P43119); assay: GPCR panel (control), Arrestin, CHO-K1; assay type: cell-based; settings: reference agonist
# [29] = system: CCR3; assay: GPCR panel (control), Arrestin, CHO-K1; assay type: cell-based, human; settings: reference agonist
# [30] = system: CCR7; assay: GPCR panel (control), Arrestin, CHO-K1; assay type: cell-based, human; settings: reference agonist
# [31] = system: CXCR6; assay: GPCR panel (control), Arrestin, HEK-293; assay type: cell-based, human; settings: reference agonist, CXCR6, HEK-293, Arrestin
# [32] = system: CX3CR1; assay: GPCR panel (control), Arrestin, CHO-K1; assay type: cell-based, human; settings: reference agonist
# [33] = system: CCR4; assay: GPCR panel (control), Arrestin, CHO-K1; assay type: cell-based, human; settings: reference agonist
# [34] = system: C5AR1; assay: GPCR panel (control), Arrestin, CHO-K1; assay type: cell-based, human; settings: reference agonist
# [35] = system: C5LR2; assay: GPCR panel (control), Arrestin, CHO-K1; assay type: cell-based, human; settings: reference agonist
# [36] = system: XCR1; assay: GPCR panel screening, cAMP assay, XCR1; assay type: cell-based, human; settings: reference agonist, XCR1, CHO
# Method: The chemokine receptor XCR1, coupled to Gαi, was tested in cAMP assays.
# Screening the GPCRs panels was performed by DiscoverX (Eurofins) using β-arrestin recruitment assays unless otherwise indicated (for details, see Supplementary Data 2). […]
# chemokine receptors (CCR1, CCR2, CCR3, CCR4, CCR5, CCR6, CCR7, CCR8, CCR9, CCR10, CXCR1, CXCR2, CXCR3, CXCR4, CXCR5, CXCR6, and CX3CR1) versus their corresponding agonist at their determined EC80 (see Supplementary Data 2). CXCL14 was preincubated for 30 min, then the standard agonist for the investigated receptor was added, followed by another incubation for 90 min without washing step in between. The chemokine receptor XCR1, coupled to Gαi, was tested in cAMP assays. The readout was relative luminescence units (RLU). The percentage of inhibition was calculated using the following formula: % Inhibition = 100% x (1 - (mean RLU of CXCL14- mean RLU of vehicle control) / (mean RLU of EC80 control - mean RLU of vehicle control)). For further details see Supplementary Data 2.
# (1 picture or pasted object on this page, not shown here)
# [37] = system: CCR10; assay: GPCR panel (control), Arrestin, U2OS; assay type: cell-based, human; settings: reference agonist
# [38] = system: CCR8; assay: GPCR panel (control), Arrestin, CHO-K1; assay type: cell-based, human; settings: reference agonist
# CRTH2, sequence (Q9Y5Y4 whole entry): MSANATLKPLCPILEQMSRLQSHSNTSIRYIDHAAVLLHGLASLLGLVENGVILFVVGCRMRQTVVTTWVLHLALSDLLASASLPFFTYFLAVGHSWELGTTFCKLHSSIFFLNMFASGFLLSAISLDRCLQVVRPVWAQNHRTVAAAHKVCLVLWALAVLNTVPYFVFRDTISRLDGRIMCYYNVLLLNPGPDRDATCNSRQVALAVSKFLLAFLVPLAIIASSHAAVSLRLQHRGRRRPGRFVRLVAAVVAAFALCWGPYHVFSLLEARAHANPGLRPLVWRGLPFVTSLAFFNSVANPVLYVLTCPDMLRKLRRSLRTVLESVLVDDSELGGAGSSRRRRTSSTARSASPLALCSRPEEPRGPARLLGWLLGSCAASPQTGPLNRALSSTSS
# PTGIR, sequence (P43119 1-383): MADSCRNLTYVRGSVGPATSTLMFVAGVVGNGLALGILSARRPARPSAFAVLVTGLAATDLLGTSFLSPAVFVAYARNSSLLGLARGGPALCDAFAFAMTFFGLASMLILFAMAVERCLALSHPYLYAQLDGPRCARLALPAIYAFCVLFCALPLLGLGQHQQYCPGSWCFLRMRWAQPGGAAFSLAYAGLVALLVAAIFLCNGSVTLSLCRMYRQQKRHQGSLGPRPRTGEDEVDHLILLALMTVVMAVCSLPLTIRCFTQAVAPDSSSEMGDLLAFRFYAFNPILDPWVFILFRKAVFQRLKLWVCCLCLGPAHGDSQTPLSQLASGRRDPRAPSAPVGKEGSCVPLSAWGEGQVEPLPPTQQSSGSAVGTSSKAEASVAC
molecule,measurement,setting,value
CNCCc1cnc(CCC(c2ccccc2)c2ccccc2)[nH]1 [Methylhistaprodifen],EC50,[1],48 nM
same,EC80,[1],11000 nM
CXCL11,EC50,[2],9.3 nM
same,EC80,[2],280 nM
Interleukin-8,EC50,[3],1.7 nM
same,EC80,[3],300 nM
same,EC50,[4],1.1 nM
same,EC80,[4],230 nM
Chemerin,EC50,[5],1 nM
same,EC80,[5],93 nM
same,EC50,[6],7.3 nM
same,EC80,[6],170 nM
CCCCCCCCCCCCC/C=C/[C@@H](O)[C@@H](N)COP(=O)(O)O [Sphingosine-1-phosphate],EC50,[7],53 nM
same,EC80,[7],1300 nM
same,EC50,[8],190 nM
same,EC80,[8],5200 nM
same,EC50,[9],260 nM
same,EC80,[9],11000 nM
same,EC50,[10],110 nM
same,EC80,[10],4800 nM
same,EC50,[11],26 nM
same,EC80,[11],2400 nM
CCCCC[C@H](O)/C=C/[C@H]1C(=O)C[C@H](O)[C@@H]1C/C=C\CCCC(=O)O [Prostaglandin D2],EC50,[12],21 nM
same,EC80,[12],1200 nM
CCL3/MIP1a,EC50,[13],8.1 nM
same,EC80,[13],570 nM
O=C(O)CCC/C=C\C[C@@H]1[C@@H](/C=C/[C@@H](O)COc2ccc(I)cc2)[C@H]2CC[C@@H]1O2 [I-BOP],EC50,[16],120 nM
same,EC80,[16],2400 nM
CCL20,EC50,[18],6.2 nM
same,EC80,[18],710 nM
CCCCCCCC/C=C\CCCCCCCC(=O)OCC(O)COP(=O)(O)O (stereo not shown) [1-Oleoyl-LPA],EC50,[19],280 nM
same,EC80,[19],23000 nM
CCL2,EC50,[23],3.1 nM
same,EC80,[23],200 nM
CXCL13,EC50,[24],24 nM
same,EC80,[24],1200 nM
CCCCCCCC/C=C\CCCCCCCC(=O)NCCO [OEA],EC50,[25],580 nM
same,EC80,[25],19000 nM
CCL3,EC50,[26],7.2 nM
same,EC80,[26],310 nM
CC#CCC(C)[C@H](O)/C=C/[C@@H]1[C@H]2c3cccc(CCCC(=O)O)c3O[C@H]2C[C@H]1O (mixture of isomers) [Beraprost],EC50,[28],390 nM
same,EC80,[28],18000 nM
CCL13,EC50,[29],8.8 nM
same,EC80,[29],210 nM
CCL19,EC50,[30],9.5 nM
same,EC80,[30],230 nM
"CXCL16 (protein, UniProt Q9H2A7 30-254, looked up) C-X-C motif chemokine 16: NEGSVTGSCYCGKRISSDSPPSVQFMNRLRKHLRAYHRCLYYTRFQLLSWSVCGGNKDPWVQELMSCLDLKECGHAYSGIVAHQKHLLPTSPPISQASEGASSDIHTPAQMLLSTLQSTQRPTLPVGSLSSDKELTRPNETTIHTAGHSLAAGPEAGENQKQPEKNAGPTARTSATVPVLCLLAIIFILTAALSYVLCKRRRGQSPQSSPDLPVHYIPVAPDSNT",EC50,[31],1.5 nM
same,EC80,[31],130 nM
"Fractalkine (protein, UniProt P78423 25-397, looked up) Fractalkine: QHHGVTKCNITCSKMTSKIPVALLIHYQQNQASCGKRAIILETRQHRLFCADPKEQWVKDAMQHLDRQAAALTRNGGTFEKQIGEVKPRTTPAAGGMDESVVLEPEATGESSSLEPTPSSQEAQRALGTSPELPTGVTGSSGTRLPPTPKAQDGGPVGTELFRVPPVSTAATWQSSAPHQPGPSLWAEAKTSEAPSTQDPSTQASTASSPAPEENAPSEGQRVWGQGQSPRPENSLEREEMGPVPAHTDAFQDWGPGSMAHVSVVPVSSEGTPSREPVASGSWTPKAEEPIHATMDPQRLGVLITPVPDAQAATRRQAVGLLAFLGLLFCLGVAMFTYQSLQGCPRKMAGEMAEGLRYIPRSCGSNSYVLVPV",EC50,[32],0.13 nM
same,EC80,[32],15 nM
"CCL22 (protein, UniProt O00626 25-93, looked up) C-C motif chemokine 22: GPYGANMEDSVCCRDYVRYRLPLRVVKHFYWTSDSCPRPGVVLLTFRDKEICADPRVPWVKMILNKLSQ",EC50,[33],2.4 nM
same,EC80,[33],120 nM
"Complement C5a (protein, UniProt P01031 678-751, looked up, C5a anaphylatoxin) C5a anaphylatoxin: TLQKKIEEIAAKYKHSVVKKCCYDGACVNNDETCEQRAARISLGPRCIKAFTECCVVASQLRANISHKDMQLGR",EC50,[34],1.3 nM
same,EC80,[34],71 nM
same,EC50,[35],2.2 nM
same,EC80,[35],43 nM
"XCL1/Lymphotactin (protein, UniProt P47992 22-114, looked up) Lymphotactin: VGSEVSDKRTCVSLTTQRLPVSRIKTYTITEGSLRAVIFITKRGLKVCADPQATWVRDVVRSMDRKSNTRNNMIQTKPTGTQQSTNTAVTLTG",EC50,[36],8.8 nM
same,EC80,[36],480 nM
"CCL27 (protein, UniProt Q9Y4X3 25-112, looked up) C-C motif chemokine 27: FLLPPSTACCTQLYRKPLSDKLLRKVIQVELQEADGDCHLQAFVLHLAQRSICIHPQNPSLSQWFEHQERKLHGTLPKLNFGMLRKMG",EC50,[37],65 nM
same,EC80,[37],1700 nM
"CCL1 (protein, UniProt P22362 24-96, looked up) C-C motif chemokine 1: KSMQVPFSRCCFSFAEQEIPLRAILCYRNTSSICSNEGLIFKLKRGKEACALDTVGWVQRHRKMLRHCPSKRK",EC50,[38],40 nM
same,EC80,[38],1900 nM
